The structures appear in SMILES notation.

Series [1] in a line: Cmax in healthy human lung epithelial lining fluid at 200 mg, po every 12 hrs for 5 days. The class given is ADME, organism-based. Also on record: dose 200 mg, route oral.
Series [2] deals with Plasma. In words: Cmax in healthy human plasma assessed as hydroxyitraconazole at 200 mg, po every 12 hrs for 5 days. The series is classed as ADME, organism-based. Further details: dose 200 mg, route oral. Conditions: in vivo.
Series [3] in a line: Cmax in healthy human alveolar cell assessed as hydroxyitraconazole at 200 mg, po every 12 hrs for 5 days. The series is classed as ADME, organism-based, Lung, Pneumocyte. Further details: dose 200 mg, route oral. The following applies: in vivo.
Series [4] has as its system Plasma. In words: AUC (0 to 24 hrs) in healthy human plasma assessed as hydroxyitraconazole at 200 mg, po every 12 hrs for 5 days. The series is classed as ADME, organism-based. Further details: time < 24 hr, dose 200 mg, route oral. The following applies: in vivo.
Series [5] in a line: AUC (0 to 24 hrs) in healthy human lung epithelial lining fluid assessed as hydroxyitraconazole at 200 mg, po every 12 hrs for 5 days. Also on record: dose 200 mg, time < 24 hr, route oral. The class given is ADME, organism-based. The following applies: in vivo.
The nature of series [6]: AUC (0 to 24 hrs) in healthy human alveolar cell assessed as hydroxyitraconazole at 200 mg, po every 12 hrs for 5 days. The series is classed as ADME, organism-based, Pneumocyte. Further details: time < 24 hr, dose 200 mg, route oral. Conditions: in vivo.

A word on the Cmax: it is the maximum level reached in the sampled fluid or tissue. The AUC is the area under the concentration-time curve, a measure of exposure. As to `CC(O)C(C)n1ncn(-c2ccc(N3CCN(c4ccc(OCC5COC(Cn6cncn6)(c6ccc(Cl)cc6Cl)O5)cc4)CC3)cc2)c1=O` (stereo unspecified) [HYDROXYITRACONAZOLE], the highest concentration (Cmax) in series [1] was 3300 ng/mL; in series [2], 1000 ng/mL; in series [3], 6600 ng/mL. For the same compound, the AUC in series [4] amounted to 60200 ng·h/mL; in series [5], 18900 ng·h/mL; in series [6], 134000 ng·h/mL.

The values above are taken from ChEMBL document CHEMBL1629615, “Intrapulmonary pharmacokinetics and pharmacodynamics of posaconazole at steady state in healthy subjects” (Antimicrob Agents Chemother, 2009).
